# Measurements: patent US4278762A, “Method for the quantitative determination of plasminogen activators” (Pentapharm AG, priority 1976, dated 1981)
# Structures can show the parent of a compound that is named as a salt. Non-standard residues stand in square brackets, D forms with d. Residues, ends and D or L forms follow the SMILES beside them. *: point of attachment. pNA = O=[N+]([O-])c1ccc(N*)cc1; Chg = N[C@H](C(=O)O)C1CCCCC1; Cbz = O=C(OCc1ccccc1)*; Bz = O=C(c1ccccc1)*
# Assays:
# Format in all cases: biochemical
# [1] = biological target: T1, urokinase (Homo sapiens, UniProt P00749); assay: Kinetic constants Km and vmax of substrate hydrolysis by urokinase (Lineweaver-Burk); settings: per CTA unit, pH 8.4, ionic strength 0.30, 37° C.
# T1 construct: also urine of healthy test persons
# Procedure: The enzyme and the substrate are mixed in a buffer solution, and the hydrolysis reaction is followed for 2 to 30 minutes. The concentration of substate [S] is varied, whereas the enzyme concentration is kept constant. If the extinction (OD=optical density) is plotted in a co-ordinate system as a function of time, a curve is obtained the tangent of which at time zero corresponds to the ideal course of the hydrolysis. By means of this tangent the initial rate of the hydrolysis can be determined.
# If 1/v is plotted against (1/[S]), a Lineweaver-Burk diagram (cf. "Kurzes Lehrbuch der Biochemie" by P. KARLSON, Georg Thieme-Verlag, Stuttgart, 1967, p. 70) is obtained from which vmax and Km can be determined graphically.
# For the determination of the kinetic constants Km and vmax listed in Table I aqueous dilution series of the substrates with concentrations from 0.1 to 2 μmoles/ml were used. […] The value of the quantity of p-nitroaniline formed per minute is a measure for the rate of hydrolysis at a given substrate concentration. […] The kinetic constants Km and vmax were determined from the points of intersection of the curves with the abscissa and the ordinate.
# [2] = biological target: T2, bovine trypsin (Bos taurus, UniProt P00760); assay: Activity of bovine trypsin at constant substrate and enzyme concentrations (Table IV); settings: substrate concentration 2 × 10^-4 M; pH 8.4, ionic strength 0.30, 37° C., 405 nm
# T2 sequence (P00760 24-246): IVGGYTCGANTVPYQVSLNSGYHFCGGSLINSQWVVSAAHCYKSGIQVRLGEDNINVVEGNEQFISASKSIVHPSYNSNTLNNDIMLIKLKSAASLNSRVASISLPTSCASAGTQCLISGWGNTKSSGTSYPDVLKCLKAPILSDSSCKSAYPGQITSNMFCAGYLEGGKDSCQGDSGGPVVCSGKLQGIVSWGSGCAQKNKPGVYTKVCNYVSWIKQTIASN
# Procedure: The results listed in Table IV were obtained under the following experimental conditions: In a measuring vessel 1.7 ml of tris-imidazole buffer having a pH of 8.4 and an ionic strength of 0.30 were mixed at 37° C. with 0.1 ml of an aqueous trypsin solution having a concentration of 2 NF units of trypsin per ml. To the mixture 0.2 ml of a 2×10^-3 molar solution of the substrate to be tested was added. Thereafter, the quantity of p-nitroaniline released from the substrate by the action of the trypsin was determined by measuring the change in the optical density Δ OD per minute at a wave length of 405 nm.
# [3] = test system: human thrombin; assay: Enzyme quantity splitting substrate I at 1 μmole pNA per minute (Table II), thrombin
# Procedure: NIH is a unit which was standardized by the "US National Institute of Health".
# (§1) In the first column of Table II are listed the quantities of the various enzymes which split substrate I at a temperature of 37° C., a pH of 8.4, an ionic strength of 0.3 and a substrate concentration of 10^-4 mole with a velocity of 1 μmole per minute. In the second column the corresponding enzyme quantity, expressed in other enzyme units, is indicated.
# [4] = biological target: T1, urokinase; assay: Enzyme quantity splitting substrate I at 1 μmole pNA per minute (Table II), urokinase; settings: 37° C., pH 8.4, ionic strength 0.3, substrate concentration 10^-4 mole
# Procedure: as §1
# [5] = biological target: T1, urokinase; assay: Determination of urokinase concentration with substrate I (ΔOD versus urokinase quantity); settings: ΔOD within 10 minutes
# Procedure: In the appended drawing the sole figure represents a graph in which the change in the optical density Δ OD caused by the hydrolytic action of various quantities of urokinase on substrate I within 10 minutes is plotted as a function of the urokinase quantity in a co-ordinate system. From this graph it can be seen that urokinase concentrations can be determined accurately in the range of 1 to 10 CTA/ml. In the determination of the urokinase content in the urine of 14 healthy test persons values of about 8 CTA units per ml of urine were found.
# [6] = test system: human plasmin; assay: Enzyme quantity splitting substrate I at 1 μmole pNA per minute (Table II), plasmin; settings: 37° C., pH 8.4, ionic strength 0.3, substrate concentration 10^-4 mole
# Procedure: CU is the casein unit which is measured on casein under standard conditions.
# as §1
# [7] = test system: urine kallikrein; assay: Enzyme quantity splitting substrate I at 1 μmole pNA per minute (Table II), urine kallikrein
# Procedure: BAEE (Benzoyl-L-arginine ethyl ester)--1 BAEE unit of urine kallikrein is that quantity of enzyme which hydrolyzes 1 μmole of benzoyl-L-arginine ethyl ester per minute under standard conditions.
# as §1
# [8] = biological target: T2, bovine trypsin; assay: Enzyme quantity splitting substrate I at 1 μmole pNA per minute (Table II), trypsin; settings: 37° C., pH 8.4, ionic strength 0.3, substrate concentration 10^-4 mole
# Procedure: NF is the trypsin unit, i.e. that quantity of enzyme which causes a change in the absorption Δ OD of 0.003 per minute, measured on benzoyl-L-arginine ethyl ester under standard conditions (cf. "The National Formulary XII", edited by "The American Pharmaceutical Association", Washington, D.C., 1965, pages 417-418).
# as §1
# [9] = biological target: T3, trypsin (Bos taurus, UniProt P00760); assay: Determination of trypsin in duodenal juice with substrate; settings: per ml of test sample; pH 8.4, ionic strength 0.30, 37° C., 405 nm
# T3 construct: b360 concerns trypsin in duodenal juice
# T3 sequence (P00760 24-246): T2 sequence (P00760 24-246)
# Procedure: The determination of trypsin in duodenal juice can be carried out for instance as follows: 1.79 ml of tris-imidazole buffer having a pH of 8.4 and an ionic strength of 0.30 are mixed with 0.01 ml of duodenal juice at 37° C. in a measuring vessel. Thereafter, the mixture is rapidly mixed with 0.2 ml of a 2×10^-3 molar solution of a substrate of this invention. The quantity of p-nitroaniline released from the substrate by the action of trypsin is determined by measuring the change in the optical density Δ OD per minute at a wave length of 405 nm. The quantity of p-nitroaniline released per minute or the corresponding change in the optical density is proportional to the trypsin activity. When using the substrate prepared according to Example 10, i.e. N^α -Cbo-C.cyclohexylglycyl-Gly-Arg-pNA.HCl, trypsin can be determined for instance at concentrations as low as 0.01 NF unit per ml of test sample.
# [10] = 37° C., pH 8.4, ionic strength 0.3, substrate concentration 10^-4 mole
Structure (SMILES),Vmax [1],Quantity in nanomoles of p-nitroaniline enzymatically released from the substrate by 1 NF unit of trypsin in 1 minute [2],"enzyme quantity releasing 1 μmole of pNA per minute from substrate I, in corresponding other units [3, 10]",splitting by thrombin (in words) ([3]; conclusion from Table II),"enzyme quantity releasing 1 μmole of pNA per minute from substrate I, in corresponding other units [4]",range of urokinase concentrations that can be determined accurately [5],"enzyme quantity releasing 1 μmole of pNA per minute from substrate I, in corresponding other units [6]","enzyme quantity releasing 1 μmole of pNA per minute from substrate I, in corresponding other units [7, 10]",splitting by kallikrein present in urine (in words) ([7]; conclusion from Table II),"enzyme quantity releasing 1 μmole of pNA per minute from substrate I, in corresponding other units [8]",lowest trypsin concentration that can be determined [9]
"CC(C)[C@H](NC(=O)c1ccccc1)C(=O)NCC(=O)N[C@@H](CCCNC(=N)N)C(=O)Nc1ccc([N+](=O)[O-])cc1 [Substrate I, N^α -Bz-Val-Gly-Arg-pNA.HCl] (Bz-Val-Gly-Arg-pNA)",7.27 × 10^-5 μmole/min. CTA,"20,9 nanomoles",2174 NIH,split very little and unspecifically,20250 CTA,1 to 10 CTA/ml,6850 CU,1688 BAEE,split but little,36.6 NF,
"N=C(N)NCCC[C@H](NC(=O)CNC(=O)[C@@H](NC(=O)OCc1ccccc1)C1CCCCC1)C(=O)Nc1ccc([N+](=O)[O-])cc1 [Substrate X, N^α -Cbo-C.Cyclohexylglycyl-Gly-Arg-pNA.HCl] (Cbz-[Chg]-Gly-Arg-pNA)",,,,,,,,,,,≥ 0.01 NF unit per ml
